The test system of one assay is M. tuberculosis. As to conditions: related compounds from the literature (Tran et al. 2004); cited from earlier work.
In another assay the test system is Staphylococcus aureus. Briefly: broth microdilution assay (MIC). Format: cell-based. As to conditions: S. aureus, read-out: minimum inhibitory concentration (MIC). The procedure: FIG. 3D illustrates the determination of the minimal inhibitory concentrations (MICs) of the red and blue 1,4 benzoquinones against Staphylococcus aureus. The MICs determined by the broth microdilution assay are 4 μg/mL for the red 1,4 benzoquinone and 6 μg/mL for the blue 1,4 benzoquinone. Ampicillin was used as a positive control. Each result is reported as the mean±SD.
This difference was confirmed using a broth microdilution assay (FIG. 3D). The minimum inhibitory concentration (MIC) for S. aureus growth was 4 μg/mL for the red 1,4 benzoquinone and 6 μg/mL for the blue 1,4 benzoquinone (FIG. 3D, Table 1). Ampicillin (MIC=0.5 μg/mL) was used as a positive control (ESCMID Eo (2003) Clin. Microbiol. Infect. 9: ix-xv; Pieterse et al., (2010) Brazil. J. Microbiol. 41: 133-145). These compounds were bactericidal at their MICs, killing 90% of S. aureus in 6 h and 99.9% in 24 h (Table 2).
A general note: In broth dilution the organism is exposed to a series of concentrations in liquid medium.

In brackets after ≈: the same amount, converted by molar mass.

As to `O=C1C=CC(=O)C=C1` [1,4-benzoquinone], the MIC in the assay on M. tuberculosis was 25 µg/mL (≈ 231 µM).

Consider `O=C1C=CC(=O)c2ccccc21` [1,4-napthoquinone], for which, in the assay on M. tuberculosis, the MIC is 100 µg/mL (≈ 632 µM).

Consider `CC1(C)S[C@@H]2[C@H](NC(=O)[C@H](N)c3ccccc3)C(=O)N2[C@H]1C(=O)O` [Ampicillin, reference compound], for which, in the assay on Staphylococcus aureus, the MIC is 0.5 µg/mL (≈ 1.43 µM).

These data come from patent US20210214303A1, “SCORPION VENOM BENZOQUINONE DERIVATIVES AND USES THEREOF” (priority 2018, published 2021).
